# Data published in patent publication US8188059B2, “Compounds and methods for modulating expression of GCGR” (Isis Pharmaceuticals, Inc., priority 2006, dated 2012).
# Strand notation (5' to 3'): a small letter for the sugar, then the base; units joined by * are phosphorothioate-linked, units joined directly phosphodiester-linked; [ ] holds rarer units or linkages, { } end groups; capitals alone tell only the bases. e = 2'-O-(2-methoxyethyl) (MOE); [5mC] = 5-methylcytosine; d = 2'-deoxy (DNA)
# Tested on: PCSK9 mRNA
# Type: cell-based, human
# Conditions: Hep3B cells, 100 nM, relative to untreated control cells; for % Inhib (PCSK9 mRNA): 0 = no reduction observed
# Description: When cells reached appropriate confluency, they were treated with oligonucleotide using LIPOFECTIN® as described. […] Cells were treated and data were obtained in duplicate or triplicate. […] Cells were harvested 16-24 hours after oligonucleotide treatment.
# Short antisense compounds targeted to a PCSK9 nucleic acid were tested for their effects on PCSK9 mRNA in vitro. The Isis No, gapmer motif and SEQ ID NO of each short antisense compound are shown again in Table 75. Cultured Hep3B cells were treated with 100 nM of short antisense compound. 5-10-5 MOE gapmers targeted to a PCSK9 nucleic acid were used as positive controls. After the treatment period, RNA was isolated from the cells and PCSK9 mRNA levels were measured by quantitative real-time PCR, as described herein. PCSK9 mRNA levels were adjusted according to total RNA content as measured by RIBOGREEN®. Results are presented in Table 75 as percent inhibition of PCSK9 (% Inhib), relative to untreated control cells.
Substance,% Inhib (PCSK9 mRNA),% Inhibition Range (PCSK9 mRNA)
400297 (antisense eA*eT*dG*dG*dG*dG*d[5mC]*dA*dA*d[5mC]*dT*dT*e[5mC]*eA) [compound 400297],0%,–
400298 (antisense e[5mC]*eA*dT*dG*dG*dG*dG*d[5mC]*dA*dA*d[5mC]*dT*eT*e[5mC]) [compound 400298],0%,–
400299 (antisense eA*e[5mC]*dA*dT*dG*dG*dG*dG*d[5mC]*dA*dA*d[5mC]*eT*eT) [compound 400299],0%,–
400300 (antisense eG*eG*dG*dA*dT*dG*d[5mC]*dT*d[5mC]*dT*dG*dG*eG*e[5mC]) [compound 400300],9%,–
400301 (antisense e[5mC]*eG*d[5mC]*dT*d[5mC]*d[5mC]*dA*dG*dG*dT*dT*d[5mC]*e[5mC]*eA) [compound 400301],27%,20-30%
400302 (antisense eG*eA*dT*dA*d[5mC]*dA*d[5mC]*d[5mC]*dT*d[5mC]*d[5mC]*dA*e[5mC]*e[5mC]) [compound 400302],0%,–
400303 (antisense eA*eG*dA*dT*dA*d[5mC]*dA*d[5mC]*d[5mC]*dT*d[5mC]*d[5mC]*eA*e[5mC]) [compound 400303],0%,–
400304 (antisense eG*eA*dG*dA*dT*dA*d[5mC]*dA*d[5mC]*d[5mC]*dT*d[5mC]*e[5mC]*eA) [compound 400304],11%,10-20%
400305 (antisense eG*e[5mC]*d[5mC]*dT*dG*dT*d[5mC]*dT*dG*dT*dG*dG*eA*eA) [compound 400305],38%,30-40%
400306 (antisense e[5mC]*eT*dG*dT*d[5mC]*dA*d[5mC]*dA*d[5mC]*dT*dT*dG*e[5mC]*eT) [compound 400306],40%,40-50%
400310 (eT*e[5mC]*d[5mC]*d[5mC]*dG*dG*d[5mC]*d[5mC]*dG*d[5mC]*dT*dG*eA*e[5mC]; antisense) [compound 400310],8%,–
400311 (eA*eT*d[5mC]*d[5mC]*d[5mC]*dG*dG*d[5mC]*d[5mC]*dG*d[5mC]*dT*eG*eA; antisense) [compound 400311],18%,10-20%
400312 (e[5mC]*eA*dT*d[5mC]*d[5mC]*d[5mC]*dG*dG*d[5mC]*d[5mC]*dG*d[5mC]*eT*eG; antisense) [compound 400312],28%,20-30%
400313 (eG*e[5mC]*dA*dT*d[5mC]*d[5mC]*d[5mC]*dG*dG*d[5mC]*d[5mC]*dG*e[5mC]*eT; antisense) [compound 400313],10%,10-20%
400314 (eG*eT*dG*d[5mC]*d[5mC]*d[5mC]*dT*dT*d[5mC]*d[5mC]*d[5mC]*dT*eT*eG; antisense) [compound 400314],26%,20-30%
400315 (eA*eT*dG*dA*dG*dG*dG*dT*dG*d[5mC]*d[5mC]*dG*e[5mC]*eT; antisense) [compound 400315],0%,–
400316 (eT*eA*dT*dG*dA*dG*dG*dG*dT*dG*d[5mC]*d[5mC]*eG*e[5mC]; antisense) [compound 400316],8%,–
400317 (e[5mC]*eT*dA*dT*dG*dA*dG*dG*dG*dT*dG*d[5mC]*e[5mC]*eG; antisense) [compound 400317],7%,–
400318 (e[5mC]*e[5mC]*dT*dA*dT*dG*dA*dG*dG*dG*dT*dG*e[5mC]*e[5mC]; antisense) [compound 400318],26%,20-30%
400319 (e[5mC]*eG*dA*dA*dT*dA*dA*dA*d[5mC]*dT*d[5mC]*d[5mC]*eA*eG; antisense) [compound 400319],0%,–
400320 (e[5mC]*e[5mC]*dG*dA*dA*dT*dA*dA*dA*d[5mC]*dT*d[5mC]*e[5mC]*eA; antisense) [compound 400320],0%,–
400321 (eT*e[5mC]*d[5mC]*dG*dA*dA*dT*dA*dA*dA*d[5mC]*dT*e[5mC]*e[5mC]; antisense) [compound 400321],0%,–
400322 (eT*eT*d[5mC]*d[5mC]*dG*dA*dA*dT*dA*dA*dA*d[5mC]*eT*e[5mC]; antisense) [compound 400322],0%,–
400323 (eG*e[5mC]*d[5mC]*dA*dG*dG*dG*dG*d[5mC]*dA*dG*d[5mC]*eA*eG; antisense) [compound 400323],0%,–
400324 (eG*eA*dG*dT*dA*dG*dA*dG*dG*d[5mC]*dA*dG*eG*e[5mC]; antisense) [compound 400324],7%,–

Substance,% Inhib (PCSK9 mRNA),% Inhibition Range (PCSK9 mRNA)
400325 (e[5mC]*e[5mC]*d[5mC]*d[5mC]*dA*dA*dA*dG*dT*d[5mC]*d[5mC]*d[5mC]*e[5mC]*eA; antisense) [compound 400325],4%,–
400326 (eT*e[5mC]*d[5mC]*d[5mC]*d[5mC]*dA*dA*dA*dG*dT*d[5mC]*d[5mC]*e[5mC]*e[5mC]; antisense) [compound 400326],0%,–
400328 (eA*e[5mC]*dG*dT*dG*dG*dG*d[5mC]*dA*dG*d[5mC]*dA*eG*e[5mC]; antisense) [compound 400328],13%,10-20%
400329 (e[5mC]*eA*d[5mC]*dG*dT*dG*dG*dG*d[5mC]*dA*dG*d[5mC]*eA*eG; antisense) [compound 400329],14%,10-20%
400332 (e[5mC]*eA*dG*dG*dG*dA*dA*d[5mC]*d[5mC]*dA*dG*dG*e[5mC]*e[5mC]; antisense) [compound 400332],0%,–
400333 (eT*e[5mC]*dA*dG*dG*dG*dA*dA*d[5mC]*d[5mC]*dA*dG*eG*e[5mC]; antisense) [compound 400333],0%,–
400334 (e[5mC]*eT*d[5mC]*dA*dG*dG*dG*dA*dA*d[5mC]*d[5mC]*dA*eG*eG; antisense) [compound 400334],0%,–
400335 (e[5mC]*e[5mC]*dT*d[5mC]*dA*dG*dG*dG*dA*dA*d[5mC]*d[5mC]*eA*eG; antisense) [compound 400335],0%,–
400336 (eT*e[5mC]*d[5mC]*dT*d[5mC]*dA*dG*dG*dG*dA*dA*d[5mC]*e[5mC]*eA; antisense) [compound 400336],4%,–
400337 (eG*eT*d[5mC]*d[5mC]*dT*d[5mC]*dA*dG*dG*dG*dA*dA*e[5mC]*e[5mC]; antisense) [compound 400337],0%,–
400338 (eG*eG*dT*d[5mC]*d[5mC]*dT*d[5mC]*dA*dG*dG*dG*dA*eA*e[5mC]; antisense) [compound 400338],9%,–
400339 (eT*eG*dG*dT*d[5mC]*d[5mC]*dT*d[5mC]*dA*dG*dG*dG*eA*eA; antisense) [compound 400339],0%,–
400340 (e[5mC]*eT*dG*dG*dT*d[5mC]*d[5mC]*dT*d[5mC]*dA*dG*dG*eG*eA; antisense) [compound 400340],0%,–
400341 (eG*e[5mC]*dT*dG*dG*dT*d[5mC]*d[5mC]*dT*d[5mC]*dA*dG*eG*eG; antisense) [compound 400341],0%,–
400342 (eG*eT*dG*d[5mC]*dT*dG*dG*dG*dG*dG*dG*d[5mC]*eA*eG; antisense) [compound 400342],0%,–
400343 (eG*eG*dT*dG*d[5mC]*dT*dG*dG*dG*dG*dG*dG*e[5mC]*eA; antisense) [compound 400343],0%,–
400344 (eG*eG*dG*dT*dG*d[5mC]*dT*dG*dG*dG*dG*dG*eG*e[5mC]; antisense) [compound 400344],0%,–
400345 (eT*eG*dG*dG*dT*dG*d[5mC]*dT*dG*dG*dG*dG*eG*eG; antisense) [compound 400345],0%,–
400346 (eG*eA*dG*d[5mC]*dA*dG*d[5mC]*dT*d[5mC]*dA*dG*d[5mC]*eA*eG; antisense) [compound 400346],5%,–
400347 (antisense eG*eG*dA*dG*d[5mC]*dA*dG*d[5mC]*dT*d[5mC]*dA*dG*e[5mC]*eA) [compound 400347],0%,–
400348 (antisense eT*eG*dG*dA*dG*d[5mC]*dA*dG*d[5mC]*dT*d[5mC]*dA*eG*e[5mC]) [compound 400348],0%,–
400349 (antisense e[5mC]*eT*dG*dG*dA*dG*d[5mC]*dA*dG*d[5mC]*dT*d[5mC]*eA*eG) [compound 400349],13%,10-20%
400350 (antisense e[5mC]*e[5mC]*d[5mC]*dT*d[5mC]*dA*d[5mC]*d[5mC]*d[5mC]*d[5mC]*d[5mC]*dA*eA*eA) [compound 400350],15%,10-20%
400351 (antisense eA*e[5mC]*d[5mC]*d[5mC]*dT*d[5mC]*dA*d[5mC]*d[5mC]*d[5mC]*d[5mC]*d[5mC]*eA*eA) [compound 400351],14%,10-20%
400354 (antisense eG*eA*d[5mC]*dA*d[5mC]*d[5mC]*d[5mC]*dT*d[5mC]*dA*d[5mC]*d[5mC]*e[5mC]*e[5mC]) [compound 400354],19%,10-20%
